From patent US4656166A, “Antibiotic compounds derived from cephalosporins, process for their production and pharmaceutical compositions” (Sanofi, priority 1983, dated 1987)
Values after ≈ are worked out from the molar mass of the structure shown.

Assays:
Format in all cases: cell-based
[1] = system: Proteus vulgaris GN 76/C.1; assay: MIC on beta-lactamase producing strain Proteus vulgaris GN 76/C.1 (Table IV); settings: GN76; Proteus vulgaris GN 76/C.1, producing beta-lactamases; read-out: MIC
Experimental: (§1) To evaluate the stability of these products towards beta-lactamases, their MIC was determined on isogenic strains producing and not producing beta-lactamases.
(§2) The results are expressed in μg/ml in Table IV.

Escherichia coli SOL 90 = assay: MIC, in vitro dilution method, Escherichia coli SOL 90 (Table III); settings: SOL90; Escherichia coli SOL 90; dilution method; read-out: MIC
Source text: (§3) The products of the invention have been studied as regards their pharmacological properties and, more especially, bacteriostatic action. This has been determined in vitro by the dilution method, and the study was on Gram negative strains.
(§4) Results, expressed in minimum inhibiting concentrations (MIC-- μg/ml), are collected in the following table (Table III).

Klebsiella RO 30 = assay: MIC, in vitro dilution method, Klebsiella RO 30 (Table III); settings: RO30; Klebsiella RO 30; dilution method; read-out: MIC
Source text: as §3, §4

[2] = system: Serrtia liquefaciens SL 1326 S; assay: MIC on strain not producing beta-lactamase, Serratia liquefaciens SL 1326 S (Table IV); settings: SL1326S, not producing beta-lactamases
Experimental: as §1, §2

[3] = system: Proteus vulgaris RL 99 bis; assay: MIC, in vitro dilution method, Proteus vulgaris RL 99 bis (Table III); settings: RL99BIS; Proteus vulgaris RL 99 bis; dilution method; read-out: MIC
Source text: as §3, §4

Pseudomonas RL 112 = assay: MIC, in vitro dilution method, Pseudomonas RL 112 (Table III); settings: RL112
Source text: as §3, §4

Enterobacter RO 154 = assay: MIC, in vitro dilution method, Enterobacter RO 154 (Table III); settings: RO154; Enterobacter RO 154; dilution method; read-out: MIC
Source text: as §3, §4

Serratia RL 72 = assay: MIC, in vitro dilution method, Serratia RL 72 (Table III); settings: RL72
Source text: as §3, §4

[4] = system: Serrtia liquefaciens SL/326 A; assay: MIC on beta-lactamase producing strain Serratia liquefaciens SL/326 A (Table IV)
Experimental: as §1, §2

Citrobacter RL 49 = assay: MIC, in vitro dilution method, Citrobacter RL 49 (Table III); settings: RL49; Citrobacter RL 49; dilution method; read-out: MIC
Source text: as §3, §4

Escherichia coli 255/L.7 = assay: MIC on strain not producing beta-lactamase, Escherichia coli 255/L.7 (Table IV); settings: Escherichia coli 255/L.7 *, not producing beta-lactamases; read-out: MIC
Experimental: as §1, §2

Escherichia coli 255 = assay: MIC on beta-lactamase producing strain Escherichia coli 255 (Table IV); settings: Escherichia coli 255, producing beta-lactamases; read-out: MIC
Experimental: as §1, §2

SMILES	MIC [1] [µg/mL]	MIC (Escherichia coli SOL 90) [µg/mL]	MIC (Klebsiella RO 30) [µg/mL]	MIC [2] [µg/mL]	MIC [3] [µg/mL]	MIC (Pseudomonas RL 112) [µg/mL]	MIC (Enterobacter RO 154) [µg/mL]	MIC (Serratia RL 72) [µg/mL]	MIC [4] [µg/mL]	MIC (Citrobacter RL 49) [µg/mL]	MIC (Escherichia coli 255/L.7) [µg/mL]	MIC (Escherichia coli 255) [µg/mL]
CC(C)(O/N=C(\C(=O)NC1C(=O)N2C(C(=O)O)=C(COC(=O)C3(N)CCCC3)C[S+]([O-])C12)c1csc(N)n1)C(=O)O (stereo not shown) [41 975]	0.5 (≈ 0.816 µM)	0.25 (≈ 0.408 µM)	0.5 (≈ 0.816 µM)	≤ 0.12	0.5 (≈ 0.816 µM)	8 (≈ 13.1 µM)	8 (≈ 13.1 µM)	4 (≈ 6.53 µM)	0.25 (≈ 0.408 µM)	0.5 (≈ 0.816 µM)	0.5 (≈ 0.816 µM)	0.5 (≈ 0.816 µM)
CC(N)CC(=O)OCC1=C(C(=O)O)N2C(=O)C(NC(=O)C(=NOC(C)(C)C(=O)O)c3csc(N)n3)C2[S+]([O-])C1 (stereo not shown) [42 024]	0.25 (≈ 0.426 µM)	0.5 (≈ 0.852 µM)	0.25 (≈ 0.426 µM)	0.06 (≈ 0.102 µM)	0.25 (≈ 0.426 µM)	4 (≈ 6.82 µM)	2 (≈ 3.41 µM)	0.5 (≈ 0.852 µM)	0.25 (≈ 0.426 µM)	0.5 (≈ 0.852 µM)	≤ 0.12	0.25 (≈ 0.426 µM)
CC(N)CCC(=O)OCC1=C(C(=O)O)N2C(=O)C(NC(=O)C(=NOC(C)(C)C(=O)O)c3csc(N)n3)C2[S+]([O-])C1 (stereo not shown) [42 027]	0.12 (≈ 0.2 µM)	0.25 (≈ 0.416 µM)	0.25 (≈ 0.416 µM)	≤ 0.06	≤ 0.12	4 (≈ 6.66 µM)	2 (≈ 3.33 µM)	0.5 (≈ 0.832 µM)	0.25 (≈ 0.416 µM)	0.25 (≈ 0.416 µM)	0.06 (≈ 0.0999 µM)	0.12 (≈ 0.2 µM)
CNCCCC(=O)OCC1=C(C(=O)O)N2C(=O)C(NC(=O)/C(=N\OC(C)(C)C(=O)O)c3csc(N)n3)C2[S+]([O-])C1 (stereo not shown) [42 028]	0.25 (≈ 0.416 µM)	0.25 (≈ 0.416 µM)	0.25 (≈ 0.416 µM)	≤ 0.06	≤ 0.12	4 (≈ 6.66 µM)	2 (≈ 3.33 µM)	0.5 (≈ 0.832 µM)	0.12 (≈ 0.2 µM)	0.5 (≈ 0.832 µM)	0.12 (≈ 0.2 µM)	0.12 (≈ 0.2 µM)
COc1cc(C(=O)OCC2=C(C(=O)O)N3C(=O)C(NC(=O)/C(=N\OC(C)(C)C(=O)O)c4csc(N)n4)C3[S+]([O-])C2)ccc1CN (stereo not shown) [42 461]		0.25 (≈ 0.376 µM)	≤ 0.125		≤ 0.125	8 (≈ 12 µM)	≤ 0.125	2 (≈ 3.01 µM)		≤ 0.125		
NCc1cccc(C(=O)OCC2=C(C(=O)O)N3C(=O)C(NC(=O)/C(=N\OC4(C(=O)O)CCC4)c4csc(N)n4)C3[S+]([O-])C2)c1 (stereo not shown) [42 462]		0.25 (≈ 0.387 µM)	≤ 0.125		≤ 0.125	4 (≈ 6.19 µM)	≤ 0.125	0.5 (≈ 0.773 µM)		≤ 0.125		
Cc1cc(C(=O)OCC2=C(C(=O)O)N3C(=O)C(NC(=O)/C(=N\OC4(C(=O)O)CCC4)c4csc(N)n4)C3[S+]([O-])C2)ccc1CN (stereo not shown) [42 463]		≤ 0.125	≤ 0.125		≤ 0.125	4 (≈ 6.05 µM)	≤ 0.125	0.5 (≈ 0.757 µM)		≤ 0.125		
CNCc1ccc(C(=O)OCC2=C(C(=O)O)N3C(=O)C(NC(=O)/C(=N\OC4(C(=O)O)CCC4)c4csc(N)n4)C3[S+]([O-])C2)cc1 (stereo not shown) [42 464]		≤ 0.125	≤ 0.125		≤ 0.125	4 (≈ 6.05 µM)	≤ 0.125	0.5 (≈ 0.757 µM)		≤ 0.125		
CC(C)(O/N=C(\C(=O)NC1C(=O)N2C(C(=O)O)=C(COC(=O)c3cccc(NC(=O)CCN)c3)C[S+]([O-])C12)c1csc(N)n1)C(=O)O (stereo not shown) [42 465]		≤ 0.125	0.5 (≈ 0.723 µM)		≤ 0.125	8 (≈ 11.6 µM)	0.5 (≈ 0.723 µM)	2 (≈ 2.89 µM)		≤ 0.125		
Nc1nc(/C(=N/OC2(C(=O)O)CCC2)C(=O)NC2C(=O)N3C(C(=O)O)=C(COC(=O)CC4CCCCN4)C[S+]([O-])C23)cs1 (stereo not shown) [42 471]		0.5 (≈ 0.783 µM)	0.25 (≈ 0.391 µM)		≤ 0.125	8 (≈ 12.5 µM)	0.25 (≈ 0.391 µM)	0.5 (≈ 0.783 µM)		0.25 (≈ 0.391 µM)		
Nc1nc(/C(=N/OC2(C(=O)O)CCC2)C(=O)NC2C(=O)N3C(C(=O)O)=C(COC(=O)CC4CCCNC4)C[S+]([O-])C23)cs1 (stereo not shown) [42 472]		0.25 (≈ 0.391 µM)	≤ 0.125		≤ 0.125	4 (≈ 6.26 µM)	≤ 0.125	0.25 (≈ 0.391 µM)		≤ 0.125		
Nc1nc(/C(=N/OC2(C(=O)O)CCC2)C(=O)NC2C(=O)N3C(C(=O)O)=C(COC(=O)CC4CCNCC4)C[S+]([O-])C23)cs1 (stereo not shown) [42 473]		0.25 (≈ 0.391 µM)	≤ 0.125		≤ 0.125	4 (≈ 6.26 µM)	≤ 0.125	0.25 (≈ 0.391 µM)		≤ 0.125		
CNCc1cccc(C(=O)OCC2=C(C(=O)O)N3C(=O)C(NC(=O)/C(=N\OC(C)(C)C(=O)O)c4csc(N)n4)C3[S+]([O-])C2)c1 (stereo not shown) [42 537]		0.25 (≈ 0.385 µM)	0.25 (≈ 0.385 µM)		≤ 0.125	8 (≈ 12.3 µM)	0.25 (≈ 0.385 µM)	0.5 (≈ 0.771 µM)		0.25 (≈ 0.385 µM)		
CCNCc1cccc(C(=O)OCC2=C(C(=O)O)N3C(=O)C(NC(=O)/C(=N\OC(C)(C)C(=O)O)c4csc(N)n4)C3[S+]([O-])C2)c1 (stereo not shown) [42 538]		0.5 (≈ 0.754 µM)	0.25 (≈ 0.377 µM)		≤ 0.125	8 (≈ 12.1 µM)	0.25 (≈ 0.377 µM)	0.5 (≈ 0.754 µM)		0.25 (≈ 0.377 µM)		
Cc1c(CN)cccc1C(=O)OCC1=C(C(=O)O)N2C(=O)C(NC(=O)C(=NOC3(C(=O)O)CCC3)c3csc(N)n3)C2[S+]([O-])C1 (stereo not shown) [42 540]		0.25 (≈ 0.378 µM)	≤ 0.125		≤ 0.125	4 (≈ 6.05 µM)	≤ 0.125	0.25 (≈ 0.378 µM)		0.125 (≈ 0.189 µM)		
Cc1ccc(CN)c(C)c1C(=O)OCC1=C(C(=O)O)N2C(=O)C(NC(=O)C(=NOC3(C(=O)O)CCC3)c3csc(N)n3)C2[S+]([O-])C1 (stereo not shown) [42 541]		0.5 (≈ 0.741 µM)	≤ 0.125		≤ 0.125	4 (≈ 5.93 µM)	0.25 (≈ 0.371 µM)	0.5 (≈ 0.741 µM)		0.25 (≈ 0.371 µM)		
Cc1cc(C)c(C(=O)OCC2=C(C(=O)O)N3C(=O)C(NC(=O)C(=NOC4(C(=O)O)CCC4)c4csc(N)n4)C3[S+]([O-])C2)c(C)c1CN (stereo not shown) [42 542]		0.5 (≈ 0.726 µM)	≤ 0.25		≤ 0.125	8 (≈ 11.6 µM)	0.5 (≈ 0.726 µM)	0.5 (≈ 0.726 µM)		0.5 (≈ 0.726 µM)		
CC(ON=C(C(=O)NC1C(=O)N2C(C(=O)O)=C(CSC(=O)C3CCNCC3)C[S+]([O-])C12)c1csc(N)n1)C(=O)O (stereo not shown) [compound 42218]		0.5 (≈ 0.813 µM)	0.5 (≈ 0.813 µM)		0.5 (≈ 0.813 µM)	64 (≈ 104 µM)	0.5 (≈ 0.813 µM)	2 (≈ 3.25 µM)		0.25 (≈ 0.407 µM)		
Nc1nc(C(=NOC2(C(=O)O)CCC2)C(=O)NC2C(=O)N3C(C(=O)O)=C(CSC(=O)C4CCNCC4)C[S+]([O-])C23)cs1 (stereo not shown) [compound 42219]		0.5 (≈ 0.78 µM)	0.5 (≈ 0.78 µM)		≤ 0.12	4 (≈ 6.24 µM)	0.5 (≈ 0.78 µM)	1 (≈ 1.56 µM)		≤ 0.12		
CC(ON=C(C(=O)NC1C(=O)N2C(C(=O)O)=C(CSC(=O)c3ccc(CN)cc3)C[S+]([O-])C12)c1csc(N)n1)C(=O)O (stereo not shown) [compound 42221]		0.25 (≈ 0.393 µM)	≤ 0.12		≤ 0.12	64 (≈ 101 µM)	0.25 (≈ 0.393 µM)	2 (≈ 3.14 µM)		≤ 0.12		
NCc1ccc(C(=O)SCC2=C(C(=O)O)N3C(=O)C(NC(=O)C(=NOC4(C(=O)O)CCC4)c4csc(N)n4)C3[S+]([O-])C2)cc1 (stereo not shown) [compound 42222]		0.5 (≈ 0.754 µM)	0.5 (≈ 0.754 µM)		≤ 0.12	8 (≈ 12.1 µM)	0.5 (≈ 0.754 µM)	1 (≈ 1.51 µM)		≤ 0.12		
NCc1cccc(C(=O)SCC2=C(C(=O)O)N3C(=O)C(NC(=O)C(=NOC4(C(=O)O)CCC4)c4csc(N)n4)C3[S+]([O-])C2)c1 (stereo not shown) [compound 42532]		0.5 (≈ 0.754 µM)	0.25 (≈ 0.377 µM)		≤ 0.125	8 (≈ 12.1 µM)	0.5 (≈ 0.754 µM)	1 (≈ 1.51 µM)		0.25 (≈ 0.377 µM)		
CNCc1ccc(C(=O)SCC2=C(C(=O)O)N3C(=O)C(NC(=O)C(=NOC4(C(=O)O)CCC4)c4csc(N)n4)C3[S+]([O-])C2)cc1 (stereo not shown) [compound 42534]		0.5 (≈ 0.739 µM)	0.25 (≈ 0.369 µM)		≤ 0.125	8 (≈ 11.8 µM)	0.5 (≈ 0.739 µM)	1 (≈ 1.48 µM)		0.25 (≈ 0.369 µM)		
Cc1c(CN)cccc1C(=O)SCC1=C(C(=O)O)N2C(=O)C(NC(=O)C(=NOC3(C(=O)O)CCC3)c3csc(N)n3)C2[S+]([O-])C1 (stereo not shown) [compound 42536]		0.5 (≈ 0.739 µM)	0.25 (≈ 0.369 µM)		≤ 0.125	8 (≈ 11.8 µM)	0.5 (≈ 0.739 µM)	0.5 (≈ 0.739 µM)		0.25 (≈ 0.369 µM)		
CC(C)(ON=C(C(=O)NC1C(=O)N2C(C(=O)O)=C(CSC(=O)C3CCN(C(=O)CN)CC3)C[S+]([O-])C12)c1csc(N)n1)C(=O)O (stereo not shown) [compound 42673]	0.25 (≈ 0.365 µM)			0.0625 (≈ 0.0911 µM)					0.25 (≈ 0.365 µM)		0.25 (≈ 0.365 µM)	0.25 (≈ 0.365 µM)
